As usually defined, the IC50 is the concentration needed to halve the response being measured.

The first assay deals with human P2X3 receptor (Homo sapiens (Human), UniProt P56373). The assay can be described thus: Evaluation of human P2X3 receptor inhibitory activity (Fluo-3 calcium fluorescence, FDSS 3000, ATP stimulation).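 Further: stimulus was 50 nM ATP with fluorescence followed for 3 min, and the response per well was peak post-ATP fluorescence divided by the reading at measurement start.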 It counts as cell-based. As to conditions: C6BU-1 cells stably expressing human P2X3 receptor.
human P2X3 receptor, sequence (P56373 whole entry): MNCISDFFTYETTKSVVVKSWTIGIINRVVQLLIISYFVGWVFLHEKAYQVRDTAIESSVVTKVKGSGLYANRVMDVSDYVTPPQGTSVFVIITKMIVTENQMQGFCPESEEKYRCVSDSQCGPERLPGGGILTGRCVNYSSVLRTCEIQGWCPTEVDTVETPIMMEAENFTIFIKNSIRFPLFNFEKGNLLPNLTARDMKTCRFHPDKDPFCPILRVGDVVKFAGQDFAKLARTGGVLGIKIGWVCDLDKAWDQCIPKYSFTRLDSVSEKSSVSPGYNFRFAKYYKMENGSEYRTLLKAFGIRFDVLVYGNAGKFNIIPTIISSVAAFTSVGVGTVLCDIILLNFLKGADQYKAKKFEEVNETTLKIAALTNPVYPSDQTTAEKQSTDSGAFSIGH
As for `Cc1ccc(Cn2c(=O)n(CCC(=O)O)c(=O)[nH]/c2=N\c2ccc(Oc3cccnc3)cc2)cc1` [Compound I-1227], the IC50 came out at 30 nM. Regarding `CC(C)=Cc1ccc(/N=c2\[nH]c(=O)n(C[C@H](C)C(=O)O)c(=O)n2Cc2ccc(C)cc2)cn1` [Compound I-1304], the concentration for half-maximal inhibition (IC50) came out at 574 nM.

`O=C(Cn1c(=O)[nH]/c(=N\c2ccc(Oc3ccnc(O)c3)cc2)n(Cc2ccc(Cl)cc2)c1=O)NCCO` [Compound I-1979]: the concentration for half-maximal inhibition (IC50) is 4 nM. `COC(=O)[C@@H](C)[C@@H](C)n1c(=O)[nH]/c(=N\c2ccc(OC3CCC3)cc2)n(Cc2ccc(Cl)cc2)c1=O` [Compound I-1452]: the IC50 was 14 nM. On the same count and under the same terms, to `CCn1c(=O)[nH]/c(=N\c2ccc(Oc3ccsc3C(=O)O)cc2)n(Cc2ccc(Cl)cc2)c1=O` [Compound I-2041] belongs 109 nM; to `Cc1cc(/N=c2\[nH]c(=O)n(C[C@H](C)C(=O)O)c(=O)n2Cc2ccc(F)cc2)ccc1OC(C)C` [Compound I-0629], 127 nM. Still for that read-out and setting: to `CNC(=O)[C@@H](C)Cn1c(=O)[nH]/c(=N\c2ccc(OC(C)C)c(C)c2)n(Cc2ccc(Cl)cc2)c1=O` [Compound I-0721] belongs 13 nM; to `Cc1ccc(Cn2c(=O)n(C[C@H](C)C(=O)O)c(=O)[nH]/c2=N\c2cnc(OC3CCCC3)c(Cl)c2)cc1` [Compound I-1477], 68 nM; to `CCOc1ccc(/N=c2\[nH]c(=O)n(CCC(=O)O)c(=O)n2Cc2ccc(C)cc2)c(F)c1F` [Compound I-2052], 68 nM. The same measure, in the same setting: to `COC(=O)[C@@H](C)Cn1c(=O)[nH]/c(=N\c2ccc(OC(C)C)c(C)c2)n(Cc2ccccc2)c1=O` [Compound I-0764] belongs 254 nM; to `COCc1cc(/N=c2\[nH]c(=O)n(CC(C)(C)C(=O)O)c(=O)n2Cc2ccc(Cl)cc2)ccc1OC(C)C` [Compound I-1430], 709 nM. On to `COC(=O)[C@@H](C)Cn1c(=O)[nH]/c(=N\c2ccc(Br)c(OC)c2)n(Cc2ccc(C)cc2)c1=O` [Compound I-1195], for which the half-maximal inhibitory concentration (IC50) stood at 221 nM. For the molecule `COC(=O)C(C)(C)Cn1c(=O)[nH]/c(=N\c2ccc(OC(C)C)c(OC)c2)n(Cc2ccc(Cl)cc2)c1=O` [Compound I-1273], the IC50 was found to be 7 nM. Same read-out and setting: to `Cc1cc(/N=c2\[nH]c(=O)n([C@@H]3CCOC3=O)c(=O)n2Cc2ccc(Cl)cc2)ccc1OC(C)C` [Compound I-0808] belongs 203 nM; to `CC(C)n1c(=O)n(Cc2ccc(Cl)cc2)c(=O)n(Cc2ccc(C(F)(F)F)cc2)c1=O` [Compound I-1289, 1-(4-chlorobenzyl)-3-isopropyl-5-(4-trifluoromethylbenzyl)-1,3,5-triazinane-2,4,6-trione], 510 nM. Same read-out and setting: under `Cc1ccc(Cn2c(=O)n([C@H](C)[C@H](C)C(=O)O)c(=O)[nH]/c2=N\c2ccc(OC(C)C)c(F)c2)cc1` [Compound I-1338] stands 36 nM. The same measure, in the same setting: under `COC(=O)[C@@H](C)Cn1c(=O)[nH]/c(=N\c2cnc(OC3CCC3)c(Cl)c2)n(Cc2ccc(C)cc2)c1=O` [Compound I-1398] stands 25 nM; under `CCn1c(=O)[nH]/c(=N\c2ccc(Oc3cccc(C(=O)OC)c3)cc2)n(Cc2ccc(C)cc2)c1=O` [Compound I-2028], 13 nM.

Regarding `COC(=O)[C@@H](C)Cn1c(=O)[nH]/c(=N\c2ccc(Oc3cc(C)nc(C)c3)cc2)n(Cc2ccc(C)cc2)c1=O` [Compound I-1240], the IC50 came to 18 nM.

Staying with this assay, now noted: C6BU-1 cells stably expressing human P2X3 receptor, Fluo-3 fluorescence, FDSS 3000.
`CC[C@@H](C)Oc1ccc(/N=c2\[nH]c(=O)n([C@H](C)CC(=O)O)c(=O)n2Cc2ccc(C)cc2)cc1C` [Compound I-0937]: the half-maximal inhibitory concentration (IC50) came out at 22 nM.

As for `CCc1nc2ccc(/N=c3\[nH]c(=O)n(CC4(C(=O)O)CC4)c(=O)n3Cc3ccc(C)cc3)cc2s1` [Compound I-1556], the IC50 was 11 nM. On the same count and under the same terms, to `COC(=O)[C@@H](C)Cn1c(=O)[nH]/c(=N\c2ccc(C3=CCCC3)cc2)n(Cc2ccc(C)cc2)c1=O` [Compound I-1083] belongs 125 nM. Still for that read-out and setting: under `CCn1c2ccccc2c2cc(/N=c3\[nH]c(=O)n([C@@H](C)[C@@H](C)C(=O)O)c(=O)n3Cc3ccc(Cl)cc3)ccc21` [Compound I-1815] stands 367 nM. For `C=C(C)c1ccc(Cn2c(=O)n(C[C@H](C)C(=O)OC)c(=O)[nH]/c2=N\c2ccc(OC(C)C)c(C)c2)cc1` [Compound I-0995], the half-maximal inhibitory concentration (IC50) was determined as 276 nM. On the same count and under the same terms, under `CCOc1ccc(/N=c2\[nH]c(=O)n(C[C@H](C)C(=O)OC)c(=O)n2Cc2ccc(C)cc2)cc1Br` [Compound I-1173] stands 9 nM; under `COC(=O)[C@H](C)[C@H](C)n1c(=O)[nH]/c(=N\c2ccc(OC(C)C)cc2)n(Cc2ccc(C)cc2)c1=O` [Compound I-1081], 30 nM. On the same count and under the same terms, under `COC(=O)[C@@H](C)Cn1c(=O)[nH]/c(=N\c2ccc(OC3CCCC3)cc2)n(Cc2ccc(C)cc2)c1=O` [Compound I-1186] stands 33 nM. Still for that read-out and setting: under `Cc1cc(/N=c2\[nH]c(=O)n(C3CNC3)c(=O)n2Cc2ccc(Cl)cc2)ccc1OC(C)C` [Compound I-1709] stands 167 nM; under `CCOC(=O)CCn1c(=O)[nH]/c(=N\c2ccc(OCC3CC3)cc2)n(Cc2ccc(Cl)cc2)c1=O` [Compound I-1147], 10 nM. Consider `Cc1ccc(Cn2c(=O)n(C[C@H](C)C(=O)O)c(=O)[nH]/c2=N\c2cccc(C3=CCCC3)c2)cc1` [Compound I-1115], for which the IC50 worked out at 516 nM.

As to `CCOC(=O)CCn1c(=O)[nH]/c(=N\c2ccc(OCC3CC3)c(Cl)c2)n(Cc2ccc(C)cc2)c1=O` [Compound I-0957], the IC50 is 25 nM.

Staying with this assay, now noted: human P2X3 receptor, Test Example 1.
As to `COC(=O)c1cncc(Oc2ccc(/N=c3\[nH]c(=O)n(C4CC4)c(=O)n3Cc3ccc(Cl)cc3)cc2)c1` [Compound I-2308], the IC50 came to 3 nM.

On to `COC(=O)[C@@H](C)Cn1c(=O)[nH]/c(=N\c2ccc(C)c(C(F)(F)F)c2)n(Cc2ccc(Cl)cc2)c1=O` [Compound I-0841], for which the 50% inhibitory concentration (IC50) was found to be 150 nM. The same measure, in the same setting: to `CCc1nc2ccc(/N=c3\[nH]c(=O)n(CCC(=O)O)c(=O)n3Cc3ccc(C)cc3)cc2s1` [Compound I-1510] belongs 13 nM; to `Cc1ccc(Cn2c(=O)n(C)c(=O)[nH]/c2=N\c2ccc(Oc3cncc(C(=O)O)n3)cc2)cc1` [Compound I-2475], 12 nM. On the same count and under the same terms, to `CCOC(=O)CCn1c(=O)[nH]/c(=N\c2ccc(Oc3ccc(OC)nc3)cc2)n(Cc2ccc(Cl)cc2)c1=O` [Compound I-1523] belongs 3 nM; to `C[C@H](C(N)=O)n1c(=O)[nH]/c(=N\c2ccc(Oc3ccon3)cc2)n(Cc2ccc(Cl)cc2)c1=O` [Compound I-2500], 67 nM; to `O=C(O)CCn1c(=O)[nH]/c(=N\c2ccc(Oc3cccc(F)n3)cc2)n(Cc2ccc(Cl)cc2)c1=O` [Compound I-2653], 9 nM. On the same count and under the same terms, to `Cc1ccc(Cn2c(=O)n(C)c(=O)[nH]/c2=N\c2ccc(Oc3cc(C(=O)O)ncn3)cc2)cc1` [Compound I-2445] belongs 13 nM; to `CCn1c(=O)[nH]/c(=N\c2ccc(Oc3cccc(C#N)n3)cc2)n(Cc2ccc(Cl)cn2)c1=O` [Compound I-2373], 33 nM.

Take `CC(C)(O)Cn1c(=O)[nH]/c(=N\c2ccc(Oc3ccon3)cc2)n(Cc2ccc(Cl)cc2)c1=O` [Compound I-2672]: the half-maximal inhibitory concentration (IC50) was 11 nM. With `CCc1cc2cc(/N=c3\[nH]c(=O)n(CC4COC(C)(C)OC4)c(=O)n3Cc3ccc(Cl)cc3)ccc2o1` [Compound I-2312], the IC50 was 5 nM.
